Results as given in ChEMBL document CHEMBL1201862, “PubChem BioAssay data set” (2004).
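Each compound was tested at five concentrations against cells in 96-well plates for 48 hours. At the GI50, growth is halved.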 The source made the active and inactive calls. No stated cut-off is given here; in the data, active = GI50 up to about 1.1 µM and inactive = higher.

Key:
Assay in all cases: growth of human tumour cells (NCI), 48 h
786-0 = tested on: 786-0
A498 = tested on: A498
A549 = tested on: A549
CCRF-CEM = tested on: CCRF-CEM
HL-60 = tested on: HL-60
HT-29 = tested on: HT-29
K562 = tested on: K562
NCI-H460 = tested on: NCI-H460
NCI-H522 = tested on: NCI-H522
OVCAR-3 = tested on: OVCAR-3
OVCAR-4 = tested on: OVCAR-4
RPMI-8226 = tested on: RPMI-8226
RXF 393 = tested on: RXF 393
SF-268 = tested on: SF-268
SF-295 = tested on: SF-295
SF-539 = tested on: SF-539
SN12C = tested on: SN12C
SR = tested on: SR
UACC-257 = tested on: UACC-257
SK-MEL-28 = tested on: SK-MEL-28

Measured: GI50

Clc1ccc(CCn2ccc3ccccc32)c(Cl)c1
inactive: 786-0 > 100 µM | A498 > 100 µM | A549 > 100 µM | CCRF-CEM > 100 µM | HL-60 > 100 µM | HT-29 > 100 µM | K562 > 100 µM | NCI-H460 > 100 µM | NCI-H522 > 100 µM | OVCAR-3 > 100 µM | OVCAR-4 > 100 µM | RPMI-8226 > 100 µM | RXF 393 > 100 µM | SF-268 > 100 µM | SF-295 > 100 µM | SF-539 > 100 µM | SN12C > 100 µM | SR > 100 µM | UACC-257 > 100 µM

O=C1c2ccccc2C2(c3ccc(Cl)cc3)N[C@H]3CCCC[C@@H]3N12 (stereo not given in full)
inactive: 786-0 95.1 µM | A498 > 100 µM | A549 77.6 µM | CCRF-CEM 53.2 µM | HL-60 47.9 µM | HT-29 73.8 µM | K562 > 100 µM | OVCAR-3 > 100 µM | OVCAR-4 84.3 µM | RPMI-8226 54.1 µM | RXF 393 97.9 µM | SF-268 48.8 µM | SF-295 > 100 µM | SK-MEL-28 > 100 µM | SN12C > 100 µM | SR 43.6 µM | UACC-257 > 100 µM

CN(C)CC1CCC/C(=C\c2ccccc2)C1=O (stereo not given)
inactive: 786-0 2.65 µM | A498 17.4 µM | A549 19 µM | HT-29 1.75 µM | NCI-H460 3.1 µM | NCI-H522 1.57 µM | OVCAR-3 1.94 µM | OVCAR-4 1.6 µM | RXF 393 2.84 µM | SF-268 2.94 µM | SF-295 19.5 µM | SF-539 4.04 µM | SK-MEL-28 2.23 µM | SN12C 6.14 µM | UACC-257 2.55 µM
active: CCRF-CEM 0.959 µM | HL-60 0.512 µM | SR 0.944 µM

N#CCCN(CCN(CCC#N)C(=O)Nc1ccccc1)C(=O)Nc1ccccc1
inactive: 786-0 75.5 µM | A498 > 100 µM | A549 80.2 µM | CCRF-CEM > 100 µM | HL-60 > 100 µM | HT-29 > 100 µM | K562 > 100 µM | NCI-H460 68.5 µM | NCI-H522 32.3 µM | RPMI-8226 > 100 µM | RXF 393 24.4 µM | SF-268 28.5 µM | SF-295 31.8 µM | SK-MEL-28 > 100 µM | SN12C > 100 µM | SR > 100 µM | UACC-257 > 100 µM

CC1=C2c3ccccc3N(C(=O)/C=C/C(=O)O)[C@H]2[C@H]2C(=O)OC(=O)[C@H]2C1
inactive: A498 > 10 µM | A549 > 10 µM | CCRF-CEM > 10 µM | HL-60 > 10 µM | HT-29 > 10 µM | NCI-H460 > 10 µM | NCI-H522 > 10 µM | OVCAR-3 > 10 µM | OVCAR-4 > 10 µM | RPMI-8226 > 10 µM | RXF 393 > 10 µM | SF-268 > 10 µM | SF-295 > 10 µM | SF-539 > 10 µM | SK-MEL-28 > 10 µM | SN12C > 10 µM | SR > 10 µM

CN(C)N1C(=O)C(=O)N(c2cccc3ccccc23)C1=O
inactive: A498 > 10 µM | A549 > 10 µM | CCRF-CEM > 10 µM | HL-60 > 10 µM | HT-29 > 10 µM | K562 > 10 µM | NCI-H460 > 10 µM | NCI-H522 > 10 µM | OVCAR-3 > 10 µM | OVCAR-4 > 10 µM | RPMI-8226 > 10 µM | RXF 393 > 10 µM | SF-268 > 10 µM | SF-295 > 10 µM | SF-539 > 10 µM | SK-MEL-28 > 10 µM | SN12C > 10 µM | SR > 10 µM

CCN(CC)CCn1c2ccccc2c(=O)c2c(OC)ccc(OC)c21
inactive: 786-0 69.5 µM | A498 97.5 µM | A549 63.7 µM | CCRF-CEM 46.6 µM | HL-60 84.3 µM | HT-29 46.9 µM | K562 35.3 µM | NCI-H460 41.9 µM | NCI-H522 > 96.4 µM | OVCAR-3 > 100 µM | OVCAR-4 > 100 µM | RPMI-8226 92.3 µM | RXF 393 32.4 µM | SF-268 55.8 µM | SF-295 61.2 µM | SF-539 39.1 µM | SN12C 52.4 µM | SR 32.2 µM | UACC-257 45.8 µM

COc1cc(=O)oc(/C=C/C=O)c1C
inactive: 786-0 20.7 µM | A498 > 100 µM | A549 > 100 µM | CCRF-CEM 5.36 µM | HL-60 13.5 µM | HT-29 19.9 µM | K562 8.53 µM | NCI-H522 19.8 µM | OVCAR-3 19 µM | OVCAR-4 17 µM | RXF 393 18.8 µM | SF-268 13.6 µM | SF-295 15.8 µM | SF-539 18.7 µM | SK-MEL-28 12.6 µM | SN12C 8.24 µM | SR 2.79 µM | UACC-257 18.9 µM

CCNC(=S)N/N=C/c1ccccn1
inactive: 786-0 5.81 µM | A498 5.09 µM | A549 7.62 µM | HL-60 3.74 µM | HT-29 4.47 µM | K562 2.86 µM | NCI-H460 4.94 µM | OVCAR-4 1.29 µM | RXF 393 19 µM | SF-268 2.4 µM | SF-295 7.14 µM | SF-539 6.7 µM | SK-MEL-28 16.7 µM | SN12C 4.97 µM | SR > 100 µM | UACC-257 6.65 µM
active: CCRF-CEM 0.957 µM | NCI-H522 0.579 µM | OVCAR-3 0.729 µM

N[C@]1(C(=O)O)C[C@@H]2C(Br)=NO[C@@H]2C1
inactive: 786-0 > 100 µM | A498 > 100 µM | A549 > 100 µM | HL-60 > 100 µM | HT-29 > 100 µM | NCI-H460 55.7 µM | NCI-H522 > 100 µM | OVCAR-3 > 100 µM | OVCAR-4 > 100 µM | RPMI-8226 > 100 µM | RXF 393 > 100 µM | SF-268 > 100 µM | SF-295 > 100 µM | SF-539 > 100 µM | SR 78.9 µM | UACC-257 > 100 µM

FC(F)(F)c1ccc2c(c1)nc1n2C(c2c(Cl)cccc2Cl)SC1 (stereo not given)
inactive: 786-0 16.6 µM | A498 17.9 µM | A549 18.2 µM | HL-60 23.8 µM | HT-29 16.1 µM | NCI-H460 16.8 µM | NCI-H522 22 µM | OVCAR-3 13.2 µM | OVCAR-4 18.3 µM | RXF 393 14.4 µM | SF-268 19.1 µM | SF-295 16.6 µM | SF-539 19.7 µM | SK-MEL-28 14.4 µM | SN12C 16.9 µM | SR 20.7 µM | UACC-257 18.9 µM
